The term MBC denotes the smallest concentration meeting the test's criterion for killing. Low values mean more potent killing, high ones less potent killing. Broadly, the MIC is the lowest concentration that inhibits growth of the organism.

From ChEMBL document CHEMBL3351559, “Spectroscopic investigations of the binding mechanisms between antimicrobial peptides and membrane models of Pseudomonas aeruginosa and Klebsiella pneumoniae” (2014) come the findings set out here.

Converted amounts (≈) assume the structure as drawn. The source made the active and inactive calls. *1 amine or outer side, *2 acyl side, *3 side chain or, on linkers, in order; H or OH if unused. Where a SMILES comes first, the peptide text is derived from it. [ ]: non-standard residue; d: D form. ξ: configuration not given here. Phe(4-NO2) = N[C@@H](Cc1ccc([N+](=O)[O-])cc1)C(=O)O; Pro(3ξ,4ξ-(CH2)4) = O=C(O)[C@H]1NCC2CCCCC21; X1 = O=C([C@H]1C2CCCCC2CN1[*:1])[*:2]; Tic = O=C(O)[C@@H]1Cc2ccccc2CN1; dTic = O=C(O)[C@H]1Cc2ccccc2CN1; dOrn = NCCC[C@@H](N)C(=O)O; Dab = NCC[C@H](N)C(=O)O; βAla = NCCC(=O)O

Test [1] deals with Lipopolysaccharide (LPS). The test can be described thus: Binding affinity to Pseudomonas aeruginosa lipopolysaccharide incorporated into 80% POPC/20% POPG by Far-UV circular dichroism spectroscopy.
The subject of test [2] is Lipopolysaccharide (LPS). Kind of test: Binding affinity to Klebsiella pneumoniae lipopolysaccharide incorporated into 75% POPC/20% POPE/5% POPG liposomes by Far-UV circular dichroism spectroscopy. Particulars: Liposome. Background: CD spectra are sensitive to the conformation of chiral molecules.
The subject of a further test is Klebsiella pneumoniae. Kind of test: Antimicrobial activity against Klebsiella pneumoniae BAMC 07-18. The test is classed as functional. Conditions: for MIC: Klebsiella pneumoniae, BAMC 07-18.
For test [3], the system named is Lipopolysaccharide (LPS). The test can be described thus: Binding affinity to SUV consisting Pseudomonas aeruginosa lipopolysaccharide by CD spectroscopy.
For a further test, the system named is Pseudomonas aeruginosa. The test can be described thus: Antimicrobial activity against Pseudomonas aeruginosa PAO1. The test is classed as functional. Conditions: for MIC: Pseudomonas aeruginosa, PAO1.
The subject of test [4] is Lipopolysaccharide (LPS). The test can be described thus: Binding affinity to Klebsiella pneumoniae lipopolysaccharide at 0.1 mg by [1H] NMR spectroscopy.
Test [5] deals with Lipopolysaccharide (LPS). Kind of test: Binding affinity to Pseudomonas aeruginosa lipopolysaccharide assessed as normalized peak area of proton resonances in region of 1.5 to 0.5 ppm by […] relative to untreated control.
For test [6], the system named is Lipopolysaccharide (LPS). The test can be described thus: Binding affinity to SUV consisting Klebsiella pneumoniae lipopolysaccharide by CD spectroscopy.
In test [7] the test system is Lipopolysaccharide (LPS). The test can be described thus: Binding affinity to Pseudomonas aeruginosa lipopolysaccharide incorporated into 59% POPC/20% POPE/21% POPG liposomes by Far-UV circular dichroism spectroscopy. Conditions: Liposome.
Test [8] concerns Lipopolysaccharide (LPS). The test can be described thus: Binding affinity to Pseudomonas aeruginosa lipopolysaccharide incorporated into 59% POPC/20% POPE/21% POPG by Far-UV circular dichroism spectroscopy.
Test [9] has as its system Lipopolysaccharide (LPS). The test can be described thus: Binding affinity to Klebsiella pneumoniae lipopolysaccharide incorporated into phospholipid 75% POPC/20% POPE/5% POPG liposomes by Far-UV circular dichroism spectroscopy.
Test [10] has as its system Lipopolysaccharide (LPS). The test can be described thus: Binding affinity to Klebsiella pneumoniae lipopolysaccharide assessed as normalized peak area of proton resonances in region of 1.5 to 0.5 ppm by […] relative to untreated control.
The test system of test [11] is Lipopolysaccharide (LPS). Kind of test: Binding affinity to Klebsiella pneumoniae lipopolysaccharide incorporated 75% POPC/20% POPE/5% POPG liposome by Far-UV circular dichroism spectroscopy.
Test [12] concerns Lipopolysaccharide (LPS). Kind of test: Binding affinity to Pseudomonas aeruginosa lipopolysaccharide at 0.1 mg by [1H] NMR spectroscopy.

As for `CC(=O)NCC(=O)N[C@@H](Cc1ccccc1)C(=O)N1Cc2ccccc2C[C@H]1C(=O)N1CC2CCCCC2[C@H]1C(=O)NCC(=O)N[C@@H](CCCCN)C(=O)N1Cc2ccccc2C[C@H]1C(=O)N1CC2CCCCC2[C@H]1C(=O)NCC(=O)N[C@@H](Cc1ccccc1)C(=O)N1Cc2ccccc2C[C@H]1C(=O)N1CC2CCCCC2[C@H]1C(=O)NCC(=O)N[C@@H](CCCCN)C(=O)N1Cc2ccccc2C[C@H]1C(=O)N[C@@H](CCCCN)C(=O)N[C@@H](CCCCN)C(=O)N[C@@H](CCCCN)C(=O)N[C@@H](CCCCN)C(N)=O` (stereo partly drawn) (Ac-GF[Tic][Pro(3ξ,4ξ-(CH2)4)]GK[Tic][Pro(3ξ,4ξ-(CH2)4)]GF[Tic][Pro(3ξ,4ξ-(CH2)4)]GK[Tic]KKKK-NH2), the outcome with Lipopolysaccharide (LPS) [1], in the test with Lipopolysaccharide (LPS) [2], with Lipopolysaccharide (LPS) [3], in the test with Lipopolysaccharide (LPS) [4], in the test with Lipopolysaccharide (LPS) [6] and in the test on Lipopolysaccharide (LPS) [7] was Active. Besides, the outcome with Lipopolysaccharide (LPS) [8], with Lipopolysaccharide (LPS) [9], in the test on Lipopolysaccharide (LPS) [11] and with Lipopolysaccharide (LPS) [12] was Active. Further, the MBC with Klebsiella pneumoniae and against Pseudomonas aeruginosa was 40 µM (≈ 97.6 µg/mL) throughout. Besides, the MIC in the test on Klebsiella pneumoniae and with Pseudomonas aeruginosa was 40 µM (≈ 97.6 µg/mL) each time. Also, the Activity in the test on Lipopolysaccharide (LPS) [5] is 33%; with Lipopolysaccharide (LPS) [10], 81%.

In the case of `CC(=O)NCC(=O)N[C@@H](Cc1ccccc1)C(=O)N1Cc2ccccc2C[C@H]1C(=O)N1CC2CCCCC2[C@H]1C(=O)NCC(=O)N[C@@H](CCCNC(=N)N)C(=O)N1Cc2ccccc2C[C@H]1C(=O)N1CC2CCCCC2[C@H]1C(=O)NCC(=O)N[C@@H](Cc1ccccc1)C(=O)N1Cc2ccccc2C[C@H]1C(=O)N1CC2CCCCC2[C@H]1C(=O)NCC(=O)N[C@@H](CCCNC(=N)N)C(=O)N1Cc2ccccc2C[C@H]1C(=O)N[C@@H](CCCNC(=N)N)C(=O)N[C@@H](CCCNC(=N)N)C(=O)N[C@@H](CCCNC(=N)N)C(=O)N[C@@H](CCCNC(=N)N)C(N)=O` (stereo partly drawn) (Ac-GF[Tic][Pro(3ξ,4ξ-(CH2)4)]GR[Tic][Pro(3ξ,4ξ-(CH2)4)]GF[Tic][Pro(3ξ,4ξ-(CH2)4)]GR[Tic]RRRR-NH2), the outcome in the test on Lipopolysaccharide (LPS) [1], in the test with Lipopolysaccharide (LPS) [2], in the test with Lipopolysaccharide (LPS) [3], in the test with Lipopolysaccharide (LPS) [4], in the test with Lipopolysaccharide (LPS) [6] and with Lipopolysaccharide (LPS) [7] was Active. Further, the outcome with Lipopolysaccharide (LPS) [8], in the test on Lipopolysaccharide (LPS) [9], in the test on Lipopolysaccharide (LPS) [11] and with Lipopolysaccharide (LPS) [12] was Active. Further, the MBC in the test with Klebsiella pneumoniae was 38.4 µM (≈ 100 µg/mL); against Pseudomonas aeruginosa it was greater than 100 µM. Also, the MIC with Klebsiella pneumoniae amounted to 19.1 µM (≈ 49.8 µg/mL); in the test with Pseudomonas aeruginosa, 38.4 µM (≈ 100 µg/mL). The figures for the Activity in the test with Lipopolysaccharide (LPS) [5] and in the test with Lipopolysaccharide (LPS) [10] were 39% and 81%, respectively.

For `CC(=O)NCC(=O)N[C@@H](Cc1ccccc1)C(=O)N1Cc2ccccc2C[C@H]1C(=O)N1CC2CCCCC2[C@H]1C(=O)NCC(=O)N[C@@H](CCN)C(=O)N1Cc2ccccc2C[C@H]1C(=O)N1CC2CCCCC2[C@H]1C(=O)NCC(=O)N[C@@H](Cc1ccccc1)C(=O)N1Cc2ccccc2C[C@H]1C(=O)N1CC2CCCCC2[C@H]1C(=O)NCC(=O)N[C@@H](CCN)C(=O)N1Cc2ccccc2C[C@H]1C(=O)N[C@@H](CCN)C(=O)N[C@@H](CCN)C(=O)N[C@@H](CCN)C(=O)N[C@@H](CCN)C(N)=O` (stereo partly drawn) (Ac-GF[Tic][Pro(3ξ,4ξ-(CH2)4)]G[Dab][Tic][Pro(3ξ,4ξ-(CH2)4)]GF[Tic][Pro(3ξ,4ξ-(CH2)4)]G[Dab][Tic][Dab][Dab][Dab][Dab]-NH2), the outcome with Lipopolysaccharide (LPS) [1], in the test on Lipopolysaccharide (LPS) [2], with Lipopolysaccharide (LPS) [3], in the test with Lipopolysaccharide (LPS) [4], in the test with Lipopolysaccharide (LPS) [6] and with Lipopolysaccharide (LPS) [7] was Active. In addition, the outcome with Lipopolysaccharide (LPS) [8], with Lipopolysaccharide (LPS) [9], in the test on Lipopolysaccharide (LPS) [11] and in the test with Lipopolysaccharide (LPS) [12] was Active. The MBC was 5.5 µM (≈ 12.5 µg/mL) with Klebsiella pneumoniae and 11 µM (≈ 25 µg/mL) with Pseudomonas aeruginosa. Moreover, the MIC with Klebsiella pneumoniae and in the test with Pseudomonas aeruginosa was 5.5 µM (≈ 12.5 µg/mL) in each case. In addition, the figures for the Activity in the test with Lipopolysaccharide (LPS) [5] and in the test on Lipopolysaccharide (LPS) [10] were 29% and 89%, respectively.

As to `CC(=O)NCC(=O)N[C@@H](Cc1ccccc1)C(=O)N1Cc2ccccc2C[C@H]1C(=O)N1CC2CCCCC2[C@@H]1C(=O)NCC(=O)N[C@H](CCCN)C(=O)N1Cc2ccccc2C[C@@H]1C(=O)N1CC2CCCCC2[C@H]1C(=O)NCC(=O)N[C@H](Cc1ccccc1)C(=O)N1Cc2ccccc2C[C@@H]1C(=O)N1CC2CCCCC2[C@@H]1C(=O)NCC(=O)N[C@H](CCCN)C(=O)N1Cc2ccccc2C[C@@H]1C(=O)N[C@H](CCCN)C(=O)N[C@H](CCCN)C(=O)N[C@H](CCCN)C(=O)N[C@H](CCCN)C(N)=O` (stereo partly drawn) (Ac-GF[Tic][X1]G[dOrn][dTic][Pro(3ξ,4ξ-(CH2)4)]G[dF][dTic][X1]G[dOrn][dTic][dOrn][dOrn][dOrn][dOrn]-NH2), the result in the test with Lipopolysaccharide (LPS) [1], in the test on Lipopolysaccharide (LPS) [2], in the test with Lipopolysaccharide (LPS) [3], in the test on Lipopolysaccharide (LPS) [4], in the test on Lipopolysaccharide (LPS) [6] and with Lipopolysaccharide (LPS) [7] was Active. Further, the outcome with Lipopolysaccharide (LPS) [8], in the test with Lipopolysaccharide (LPS) [9], in the test with Lipopolysaccharide (LPS) [11] and with Lipopolysaccharide (LPS) [12] was Active. Further, the MBC with Klebsiella pneumoniae and with Pseudomonas aeruginosa was 21 µM (≈ 49.5 µg/mL) each time. Moreover, the MIC against Klebsiella pneumoniae and in the test on Pseudomonas aeruginosa was 21 µM (≈ 49.5 µg/mL) in each case. In addition, the Activity in the test on Lipopolysaccharide (LPS) [5] was 36%; in the test with Lipopolysaccharide (LPS) [10], 93%.

As for `CC(=O)NCC(=O)N[C@@H](Cc1ccc([N+](=O)[O-])cc1)C(=O)N1Cc2ccccc2C[C@H]1C(=O)N1CC2CCCCC2[C@H]1C(=O)NCC(=O)N[C@@H](CCCCN)C(=O)N1Cc2ccccc2C[C@H]1C(=O)N1CC2CCCCC2[C@H]1C(=O)NCC(=O)N[C@@H](Cc1ccc([N+](=O)[O-])cc1)C(=O)N1Cc2ccccc2C[C@H]1C(=O)N1CC2CCCCC2[C@H]1C(=O)NCC(=O)N[C@@H](CCCCN)C(=O)N1Cc2ccccc2C[C@H]1C(=O)N[C@@H](CCCCN)C(=O)N[C@@H](CCCCN)C(=O)N[C@@H](CCCCN)C(=O)N[C@@H](CCCCN)C(N)=O` (stereo partly drawn) (Ac-G[Phe(4-NO2)][Tic][Pro(3ξ,4ξ-(CH2)4)]GK[Tic][Pro(3ξ,4ξ-(CH2)4)]G[Phe(4-NO2)][Tic][Pro(3ξ,4ξ-(CH2)4)]GK[Tic]KKKK-NH2), the outcome in the test with Lipopolysaccharide (LPS) [1], with Lipopolysaccharide (LPS) [2], in the test with Lipopolysaccharide (LPS) [3], in the test on Lipopolysaccharide (LPS) [6], in the test on Lipopolysaccharide (LPS) [7] and with Lipopolysaccharide (LPS) [8] was Active. For the same molecule, the result in the test on Lipopolysaccharide (LPS) [9] and in the test with Lipopolysaccharide (LPS) [11] was Active. For the same molecule, the MBC with Klebsiella pneumoniae turned out to be 19.6 µM (≈ 49.6 µg/mL); with Pseudomonas aeruginosa, 39.1 µM (≈ 99 µg/mL). The MIC in the test on Klebsiella pneumoniae and against Pseudomonas aeruginosa was 19.6 µM (≈ 49.6 µg/mL) in each case.

In the case of `CC(=O)NCCC(=O)N[C@@H](Cc1ccccc1)C(=O)N1Cc2ccccc2C[C@H]1C(=O)N1CC2CCCCC2[C@H]1C(=O)NCCC(=O)N[C@@H](CCCCN)C(=O)N1Cc2ccccc2C[C@H]1C(=O)N1CC2CCCCC2[C@H]1C(=O)NCCC(=O)N[C@@H](Cc1ccccc1)C(=O)N1Cc2ccccc2C[C@H]1C(=O)N1CC2CCCCC2[C@H]1C(=O)NCCC(=O)N[C@@H](CCCCN)C(=O)N1Cc2ccccc2C[C@H]1C(=O)N[C@@H](CCCCN)C(=O)N[C@@H](CCCCN)C(=O)N[C@@H](CCCCN)C(=O)N[C@@H](CCCCN)C(N)=O` (stereo partly drawn) (Ac-[βAla]F[Tic][Pro(3ξ,4ξ-(CH2)4)][βAla]K[Tic][Pro(3ξ,4ξ-(CH2)4)][βAla]F[Tic][Pro(3ξ,4ξ-(CH2)4)][βAla]K[Tic]KKKK-NH2), the result in the test on Lipopolysaccharide (LPS) [1], in the test with Lipopolysaccharide (LPS) [2], in the test with Lipopolysaccharide (LPS) [3], in the test on Lipopolysaccharide (LPS) [6], in the test on Lipopolysaccharide (LPS) [7] and with Lipopolysaccharide (LPS) [8] was Active. In addition, the outcome with Lipopolysaccharide (LPS) [9] and in the test with Lipopolysaccharide (LPS) [11] was Active. Moreover, the MBC with Klebsiella pneumoniae and in the test with Pseudomonas aeruginosa was 40 µM (≈ 99.9 µg/mL) throughout. Besides, the MIC in the test with Klebsiella pneumoniae and against Pseudomonas aeruginosa was 40 µM (≈ 99.9 µg/mL) in each case.
